From publication PMC6429214, “Design, Synthesis and Biological Evaluation of Isoxazole-Based CK1 Inhibitors Modified with Chiral Pyrrolidine Scaffolds” (Molecules, 2019)

Legend:
Test in all cases: 33PanQinase panel
Format in all cases: biochemical
[1] = biological target: T1, FGF-R4 (Homo sapiens, UniProt P22455); details: FGF-R4, 1 µM; read-out: Residual Activity (%)
T1 construct: purchased ProQinase
In short: (§1)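 1 µM inhibitor; 1% DMSO final; radiometric 33P activity read; result = % residual activity vs DMSO ctrl; 320 wt kinases screened.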

[2] = biological target: T2, GSK3-alpha (Homo sapiens, UniProt P49840); details: read-out: Residual Activity (%)
T2 construct: purchased ProQinase
In short: as §1

[3] = biological target: T3, CDK1/CycA2 (Homo sapiens, UniProt P06493); details: CDK1/CycA2, 1 µM; read-out: Residual Activity (%)
T3 construct: purchased ProQinase
In short: as §1

[4] = biological target: T4, BRK (Homo sapiens, UniProt Q13882); details: read-out: Residual Activity (%)
T4 construct: purchased ProQinase
In short: as §1

[5] = biological target: T5, HIPK4 (Homo sapiens, UniProt Q8NE63); details: HIPK4, 1 µM; read-out: Residual Activity (%)
T5 construct: purchased ProQinase
In short: as §1

[6] = biological target: T6, CSF1-R (Homo sapiens, UniProt P07333); details: read-out: Residual Activity (%)
T6 construct: purchased ProQinase
In short: as §1

[7] = biological target: T7, SRPK2 (Homo sapiens, UniProt P78362); details: SRPK2, 1 µM; read-out: Residual Activity (%)
T7 construct: purchased ProQinase
In short: as §1

[8] = biological target: T8, CK1-delta (Homo sapiens, UniProt P48730); details: read-out: Residual Activity (%)
T8 construct: purchased ProQinase
In short: as §1

[9] = biological target: T9, LTK (Homo sapiens, UniProt P29376); details: read-out: Residual Activity (%)
T9 construct: purchased ProQinase
In short: as §1

[10] = biological target: T10, DAPK2 (Homo sapiens, UniProt Q9UIK4); details: DAPK2, 1 µM; read-out: Residual Activity (%)
T10 construct: purchased ProQinase
In short: as §1

[11] = biological target: T11, IKK-beta (Homo sapiens, UniProt O14920); details: read-out: Residual Activity (%)
T11 construct: purchased ProQinase
In short: as §1

[12] = biological target: T12, TTBK2 (Homo sapiens, UniProt Q6IQ55); details: TTBK2, 1 µM; read-out: Residual Activity (%)
T12 construct: purchased ProQinase
In short: as §1

[13] = biological target: T13, PAK3 (Homo sapiens, UniProt O75914); details: PAK3, 1 µM; read-out: Residual Activity (%)
T13 construct: purchased ProQinase
In short: as §1

[14] = biological target: T14, GSK3-beta (Homo sapiens, UniProt P49841); details: read-out: Residual Activity (%)
T14 construct: purchased ProQinase
In short: as §1

[15] = biological target: T15, CAMKK2 (Homo sapiens, UniProt Q96RR4); details: CAMKK2, 1 µM; read-out: Residual Activity (%)
T15 construct: purchased ProQinase
In short: as §1

[16] = biological target: T16, IRAK1 (Homo sapiens, UniProt P51617); details: IRAK1, 1 µM; read-out: Residual Activity (%)
T16 construct: purchased ProQinase
In short: as §1

[17] = biological target: T17, FGR (Homo sapiens, UniProt P09769); details: read-out: Residual Activity (%)
T17 construct: purchased ProQinase
In short: as §1

[18] = biological target: T18, CDC7/DBF4 (Homo sapiens, UniProt O00311); details: CDC7/DBF4, 1 µM; read-out: Residual Activity (%)
T18 construct: purchased ProQinase
In short: as §1

[19] = biological target: T19, AKT3 aa106-479 (Homo sapiens, UniProt Q9Y243); details: AKT3 aa106-479, 1 µM; read-out: Residual Activity (%)
T19 construct: purchased ProQinase
In short: as §1

[20] = biological target: T20, RIPK2 (Homo sapiens, UniProt O43353); details: RIPK2, 1 µM; read-out: Residual Activity (%)
T20 construct: purchased ProQinase
In short: as §1

[21] = biological target: T21, JNK1 (Homo sapiens, UniProt P45983); details: JNK1, 1 µM; read-out: Residual Activity (%)
T21 construct: purchased ProQinase
In short: as §1

[22] = biological target: T22, PKC-epsilon (Homo sapiens, UniProt Q02156); details: read-out: Residual Activity (%)
T22 construct: purchased ProQinase
In short: as §1

[23] = biological target: T23, STK39 (Homo sapiens, UniProt Q9UEW8); details: STK39, 1 µM; read-out: Residual Activity (%)
T23 construct: purchased ProQinase
In short: as §1

[24] = biological target: T24, RPS6KA2 (Homo sapiens, UniProt Q15349); details: RPS6KA2, 1 µM; read-out: Residual Activity (%)
T24 construct: purchased ProQinase
In short: as §1

[25] = biological target: T25, PKC-iota (Homo sapiens, UniProt P41743); details: read-out: Residual Activity (%)
T25 construct: purchased ProQinase
In short: as §1

[26] = biological target: T26, JNK3 (Homo sapiens, UniProt P53779); details: JNK3, 1 µM; read-out: Residual Activity (%)
T26 construct: purchased ProQinase
In short: as §1

[27] = biological target: T27, EPHA3 (Homo sapiens, UniProt P29320); details: EPHA3, 1 µM; read-out: Residual Activity (%)
T27 construct: purchased ProQinase
In short: as §1

[28] = biological target: T28, MST1 (Homo sapiens, UniProt Q13043); details: MST1, 1 µM; read-out: Residual Activity (%)
T28 construct: purchased ProQinase
In short: as §1

[29] = biological target: T29, AKT1 aa106-480 (Homo sapiens, UniProt P31749); details: AKT1 aa106-480, 1 µM; read-out: Residual Activity (%)
T29 construct: purchased ProQinase
In short: as §1

[30] = biological target: T30, TXK (Homo sapiens, UniProt P42681); details: read-out: Residual Activity (%)
T30 construct: purchased ProQinase
In short: as §1

T24 sequence (Q15349 whole entry): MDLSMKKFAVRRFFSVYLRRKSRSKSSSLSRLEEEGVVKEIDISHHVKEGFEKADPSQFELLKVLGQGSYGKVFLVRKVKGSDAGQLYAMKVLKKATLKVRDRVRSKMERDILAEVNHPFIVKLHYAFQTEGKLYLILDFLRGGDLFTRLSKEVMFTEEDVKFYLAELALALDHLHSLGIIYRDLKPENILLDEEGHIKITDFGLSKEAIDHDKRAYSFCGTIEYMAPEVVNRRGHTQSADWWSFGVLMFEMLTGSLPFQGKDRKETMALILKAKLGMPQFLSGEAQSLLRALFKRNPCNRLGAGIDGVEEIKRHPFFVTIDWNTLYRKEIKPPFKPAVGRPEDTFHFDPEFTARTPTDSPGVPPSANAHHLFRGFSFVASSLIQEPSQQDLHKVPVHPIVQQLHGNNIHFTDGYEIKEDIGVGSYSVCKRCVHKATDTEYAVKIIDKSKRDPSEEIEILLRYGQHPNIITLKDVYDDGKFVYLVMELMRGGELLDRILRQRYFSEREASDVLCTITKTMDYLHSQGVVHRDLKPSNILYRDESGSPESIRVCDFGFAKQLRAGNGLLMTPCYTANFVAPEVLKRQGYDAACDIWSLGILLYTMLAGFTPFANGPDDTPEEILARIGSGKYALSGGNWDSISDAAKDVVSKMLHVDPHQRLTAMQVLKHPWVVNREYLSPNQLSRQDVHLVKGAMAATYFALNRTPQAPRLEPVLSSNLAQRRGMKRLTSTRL
T13 sequence (O75914 whole entry): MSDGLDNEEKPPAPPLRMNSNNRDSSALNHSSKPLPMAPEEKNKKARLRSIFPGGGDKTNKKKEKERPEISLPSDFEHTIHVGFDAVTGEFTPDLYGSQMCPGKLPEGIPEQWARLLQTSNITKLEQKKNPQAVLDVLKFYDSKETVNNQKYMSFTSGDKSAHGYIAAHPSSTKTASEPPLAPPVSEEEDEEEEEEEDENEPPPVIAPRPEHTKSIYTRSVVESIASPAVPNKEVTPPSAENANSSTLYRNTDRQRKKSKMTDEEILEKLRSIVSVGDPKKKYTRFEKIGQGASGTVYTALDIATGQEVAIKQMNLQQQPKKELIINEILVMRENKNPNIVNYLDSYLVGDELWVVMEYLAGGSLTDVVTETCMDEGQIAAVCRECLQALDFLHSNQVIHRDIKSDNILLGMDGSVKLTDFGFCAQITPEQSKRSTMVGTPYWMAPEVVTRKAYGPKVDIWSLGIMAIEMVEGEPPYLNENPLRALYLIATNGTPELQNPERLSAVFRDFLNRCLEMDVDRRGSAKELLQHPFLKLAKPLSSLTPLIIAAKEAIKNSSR
T18 sequence (O00311 whole entry): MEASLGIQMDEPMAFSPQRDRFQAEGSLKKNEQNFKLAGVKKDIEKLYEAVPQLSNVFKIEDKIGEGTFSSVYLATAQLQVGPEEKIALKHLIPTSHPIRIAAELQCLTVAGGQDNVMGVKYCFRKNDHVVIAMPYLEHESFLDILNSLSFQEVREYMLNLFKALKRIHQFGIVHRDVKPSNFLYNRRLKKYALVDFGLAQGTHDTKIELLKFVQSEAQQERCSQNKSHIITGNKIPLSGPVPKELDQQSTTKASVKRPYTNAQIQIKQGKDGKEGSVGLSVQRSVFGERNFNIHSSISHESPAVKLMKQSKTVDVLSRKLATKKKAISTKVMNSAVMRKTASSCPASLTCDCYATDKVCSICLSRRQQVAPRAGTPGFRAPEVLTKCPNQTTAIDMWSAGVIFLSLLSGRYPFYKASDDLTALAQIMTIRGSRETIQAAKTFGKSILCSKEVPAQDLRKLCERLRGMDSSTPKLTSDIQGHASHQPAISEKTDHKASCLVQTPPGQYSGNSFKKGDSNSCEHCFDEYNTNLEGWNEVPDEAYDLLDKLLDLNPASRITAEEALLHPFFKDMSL
T18 sequence (Q9UBU7 whole entry partner): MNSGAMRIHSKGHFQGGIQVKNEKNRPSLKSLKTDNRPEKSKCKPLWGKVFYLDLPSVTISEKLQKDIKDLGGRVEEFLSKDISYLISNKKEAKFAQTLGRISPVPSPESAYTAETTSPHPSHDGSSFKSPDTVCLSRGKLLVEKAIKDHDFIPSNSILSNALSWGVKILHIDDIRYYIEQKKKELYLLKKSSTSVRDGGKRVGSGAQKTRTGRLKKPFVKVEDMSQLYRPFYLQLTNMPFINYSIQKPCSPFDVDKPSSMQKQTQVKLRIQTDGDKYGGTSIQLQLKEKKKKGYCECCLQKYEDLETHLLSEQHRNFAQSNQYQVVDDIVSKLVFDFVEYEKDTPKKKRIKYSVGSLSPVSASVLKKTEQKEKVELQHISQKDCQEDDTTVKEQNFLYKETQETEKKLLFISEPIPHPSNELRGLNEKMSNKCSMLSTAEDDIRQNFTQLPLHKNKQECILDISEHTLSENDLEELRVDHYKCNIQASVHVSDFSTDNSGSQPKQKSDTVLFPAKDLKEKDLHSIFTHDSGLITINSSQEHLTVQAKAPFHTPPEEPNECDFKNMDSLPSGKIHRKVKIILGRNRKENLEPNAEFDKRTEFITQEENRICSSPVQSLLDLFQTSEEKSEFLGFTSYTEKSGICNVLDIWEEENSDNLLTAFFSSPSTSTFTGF
T19 sequence (Q9Y243 106-479 limits assumed): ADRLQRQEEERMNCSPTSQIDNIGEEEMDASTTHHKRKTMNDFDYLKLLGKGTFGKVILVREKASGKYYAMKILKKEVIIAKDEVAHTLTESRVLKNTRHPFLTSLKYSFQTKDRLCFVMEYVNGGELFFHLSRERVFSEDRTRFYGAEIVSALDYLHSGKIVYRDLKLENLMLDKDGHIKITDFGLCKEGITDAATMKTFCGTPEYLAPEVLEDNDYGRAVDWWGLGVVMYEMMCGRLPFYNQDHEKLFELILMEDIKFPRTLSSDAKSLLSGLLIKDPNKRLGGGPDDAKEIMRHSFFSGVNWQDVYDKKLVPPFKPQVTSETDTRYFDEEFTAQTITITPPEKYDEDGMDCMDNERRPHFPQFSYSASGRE
T4 sequence (Q13882 whole entry): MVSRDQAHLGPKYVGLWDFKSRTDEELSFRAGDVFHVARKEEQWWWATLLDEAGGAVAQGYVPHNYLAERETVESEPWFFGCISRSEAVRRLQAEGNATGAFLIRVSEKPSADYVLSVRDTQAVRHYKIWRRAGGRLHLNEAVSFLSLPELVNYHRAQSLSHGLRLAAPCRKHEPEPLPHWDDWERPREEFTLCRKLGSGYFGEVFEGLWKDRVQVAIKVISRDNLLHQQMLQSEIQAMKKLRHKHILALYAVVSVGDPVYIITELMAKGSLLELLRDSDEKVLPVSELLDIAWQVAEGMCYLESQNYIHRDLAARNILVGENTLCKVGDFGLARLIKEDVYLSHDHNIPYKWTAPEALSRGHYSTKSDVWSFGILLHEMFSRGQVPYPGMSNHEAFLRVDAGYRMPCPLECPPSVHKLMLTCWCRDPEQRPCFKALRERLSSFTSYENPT
T16 sequence (P51617 whole entry): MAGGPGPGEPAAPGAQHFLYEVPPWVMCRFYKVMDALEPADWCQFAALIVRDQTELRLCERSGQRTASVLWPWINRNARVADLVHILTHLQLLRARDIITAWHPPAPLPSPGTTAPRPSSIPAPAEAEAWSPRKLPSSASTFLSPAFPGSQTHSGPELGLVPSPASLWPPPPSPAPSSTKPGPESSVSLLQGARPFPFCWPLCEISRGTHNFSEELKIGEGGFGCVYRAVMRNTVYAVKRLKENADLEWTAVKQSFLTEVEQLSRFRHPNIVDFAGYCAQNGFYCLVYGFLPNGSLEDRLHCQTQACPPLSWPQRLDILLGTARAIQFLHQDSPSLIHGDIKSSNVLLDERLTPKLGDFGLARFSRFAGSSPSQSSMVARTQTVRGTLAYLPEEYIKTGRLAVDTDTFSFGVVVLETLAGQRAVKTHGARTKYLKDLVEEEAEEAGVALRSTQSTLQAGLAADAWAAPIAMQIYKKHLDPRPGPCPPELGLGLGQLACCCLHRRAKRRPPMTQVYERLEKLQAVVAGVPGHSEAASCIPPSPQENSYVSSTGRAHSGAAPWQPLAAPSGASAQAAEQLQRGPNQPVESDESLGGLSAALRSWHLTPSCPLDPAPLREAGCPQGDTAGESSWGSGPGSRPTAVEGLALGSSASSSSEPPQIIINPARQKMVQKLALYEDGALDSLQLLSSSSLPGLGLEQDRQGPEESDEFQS
T9 sequence (P29376 17-864): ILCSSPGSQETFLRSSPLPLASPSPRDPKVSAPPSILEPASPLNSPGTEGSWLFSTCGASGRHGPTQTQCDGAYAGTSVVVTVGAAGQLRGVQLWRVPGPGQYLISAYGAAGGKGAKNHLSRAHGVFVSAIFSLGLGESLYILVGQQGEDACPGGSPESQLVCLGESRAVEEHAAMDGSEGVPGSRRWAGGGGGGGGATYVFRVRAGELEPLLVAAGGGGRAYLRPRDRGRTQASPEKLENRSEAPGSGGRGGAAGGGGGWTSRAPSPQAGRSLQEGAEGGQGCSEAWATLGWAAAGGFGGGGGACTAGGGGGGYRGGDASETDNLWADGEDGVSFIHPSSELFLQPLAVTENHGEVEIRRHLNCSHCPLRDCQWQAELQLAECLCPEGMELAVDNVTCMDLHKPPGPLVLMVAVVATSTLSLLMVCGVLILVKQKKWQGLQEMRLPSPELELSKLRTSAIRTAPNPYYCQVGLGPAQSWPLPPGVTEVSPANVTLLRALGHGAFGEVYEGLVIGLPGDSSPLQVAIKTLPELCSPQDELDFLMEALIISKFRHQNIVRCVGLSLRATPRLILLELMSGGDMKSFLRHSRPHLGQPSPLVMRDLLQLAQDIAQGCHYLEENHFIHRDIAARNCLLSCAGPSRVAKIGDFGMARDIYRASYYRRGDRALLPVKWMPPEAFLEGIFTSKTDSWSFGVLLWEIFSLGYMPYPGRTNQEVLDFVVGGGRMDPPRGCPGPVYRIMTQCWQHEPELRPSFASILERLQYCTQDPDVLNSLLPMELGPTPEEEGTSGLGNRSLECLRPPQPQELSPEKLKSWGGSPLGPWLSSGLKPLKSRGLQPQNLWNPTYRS

## COc1ccc(-c2cc(C(=O)Nc3cc(-c4c(-c5ccc(F)cc5)noc4C(C)C)ccn3)n(CC3NCC(O)C3O)c2)cc1 (stereo not drawn) [29d]
[1]
  remaining activity at 1 µM: 125%
[2]
  remaining activity at 1 µM: 103%
[3]
  remaining activity at 1 µM: 102%
[4]
  remaining activity at 1 µM: 131%
[5]
  remaining activity at 1 µM: 91%
[6]
  remaining activity at 1 µM: 108%
[7]
  remaining activity at 1 µM: 107%
[8]
  remaining activity at 1 µM: 1%
[9]
  remaining activity at 1 µM: 98%
[10]
  remaining activity at 1 µM: 96%
[11]
  remaining activity at 1 µM: 92%
[12]
  remaining activity at 1 µM: 101%
[13]
  remaining activity at 1 µM: 81%
[14]
  remaining activity at 1 µM: 100%
[15]
  remaining activity at 1 µM: 97%
[16]
  remaining activity at 1 µM: 91%
[17]
  remaining activity at 1 µM: 107%
[18]
  remaining activity at 1 µM: 94%
[19]
  remaining activity at 1 µM: 95%
[20]
  remaining activity at 1 µM: 108%
[21]
  remaining activity at 1 µM: 63%
[22]
  remaining activity at 1 µM: 84%
[23]
  remaining activity at 1 µM: 110%
[24]
  remaining activity at 1 µM: 93%
[25]
  remaining activity at 1 µM: 88%
[26]
  remaining activity at 1 µM: 15%
[27]
  remaining activity at 1 µM: 118%
[28]
  remaining activity at 1 µM: 101%
[29]
  remaining activity at 1 µM: 84%
[30]
  remaining activity at 1 µM: 119%
